Measured values from US12398118B2, “Rho-associated protein kinase inhibitor, pharmaceutical composition comprising same, and use thereof” (BEIJING TIDE PHARMACEUTICAL CO., LTD., priority 2018, dated 2025).

What was measured:
ROCK2 = ROCK2 (Homo sapiens, UniProt O75116); assay: ROCK2 kinase IC50, HTRF KinEASE-STK S2 kit; format: biochemical; settings: 2 hours at room temperature
Procedure: (§1) The kinase IC50 was determined by a commercialized CISBIO kinase detection kit, HTRF KinEASE-STK S2 kit (62ST2PEC). ROCK2 (01-119) employed in the reaction was purchased from Carna Biosciences.
(§2) Before the assay, the following working solutions as needed were formulated with corresponding reagents according to the instruction of the kinase detection kit: 1×kinase buffer, 5×STK-S2 substrate working solution (1.5 μM) and 5×ATP working solution (1.5 μM), 5×ROCK2 kinase working solution, 4×Streptavidin-XL665 working solution, and 4×STK-Ab-Cryptate 2 detection solution. Then the assay was performed according to the following procedure.
(§3) A solution of a compound at a concentration of 10000 nM was prepared with the 1×kinase buffer containing 2.5% DMSO. Gradient dilution of the solution of the compound was performed with the kinase buffer containing DMSO, so as to obtain solutions of a test compound at 9 different concentrations. In addition to wells of test compounds, a positive well (containing all the reagents except the compound) and a negative well (containing all the reagents except the test compound and kinase) were set. Except for the control wells (positive and negative wells), a solution of a test compound (4 μL) was added to each of the reaction wells, and a solution of 2.5% DMSO was added to the control wells. Then the substrate (2 μM, i.e., 2 μL 5×STK-S2 substrate working solution) was added to each of the reaction wells. The 5×ROCK2 kinase working solution (2 μL, containing 1.4 ng ROCK2 kinase) was added to each of the reaction wells except for the negative well, the volume of which was made up with the 1×kinase buffer (2 μL). The 5×ATP working solution (2 μL) was added to each of the reaction wells, and the mixtures were incubated at room temperature for 2 hours. After the kinase reaction was complete, the 4×Streptavidin-XL665 working solution was added to each of the reaction wells, the solutions were mixed, followed by immediate addition of the 4×STK-Ab-Cryptate 2 detection solution (5 μL), and the mixtures were incubated at room temperature for 1 hour. The fluorescence signal was read on ENVISION (Perkinelmer) (excitation wavelength: 320 inn, and emission wavelength: 665 nm and 615 nm). The inhibitory rate in each well was calculated based on the fluorescence intensity value: ER (Emission Ratio)_(fluorescence intensity at 665 nm/fluorescence intensity at 615 nm); inhibitory rate=(ERpositive−ERtest compound)/(ERpositive−ERnegative)*100%. Curves were plotted and fitted to obtain the median inhibitory concentration (IC50) of each teat compound with the PRISM 5.0 software. According to a biological test method similar to the above, the IC50 values of the compounds on ROCK1 were also tested.

ROCK1 = ROCK1 (Homo sapiens (Human), UniProt Q13464); assay: ROCK1 kinase IC50, biological test method similar to ROCK2 assay; format: biochemical
Sequence of ROCK1 (Q13464 whole entry, species assumed): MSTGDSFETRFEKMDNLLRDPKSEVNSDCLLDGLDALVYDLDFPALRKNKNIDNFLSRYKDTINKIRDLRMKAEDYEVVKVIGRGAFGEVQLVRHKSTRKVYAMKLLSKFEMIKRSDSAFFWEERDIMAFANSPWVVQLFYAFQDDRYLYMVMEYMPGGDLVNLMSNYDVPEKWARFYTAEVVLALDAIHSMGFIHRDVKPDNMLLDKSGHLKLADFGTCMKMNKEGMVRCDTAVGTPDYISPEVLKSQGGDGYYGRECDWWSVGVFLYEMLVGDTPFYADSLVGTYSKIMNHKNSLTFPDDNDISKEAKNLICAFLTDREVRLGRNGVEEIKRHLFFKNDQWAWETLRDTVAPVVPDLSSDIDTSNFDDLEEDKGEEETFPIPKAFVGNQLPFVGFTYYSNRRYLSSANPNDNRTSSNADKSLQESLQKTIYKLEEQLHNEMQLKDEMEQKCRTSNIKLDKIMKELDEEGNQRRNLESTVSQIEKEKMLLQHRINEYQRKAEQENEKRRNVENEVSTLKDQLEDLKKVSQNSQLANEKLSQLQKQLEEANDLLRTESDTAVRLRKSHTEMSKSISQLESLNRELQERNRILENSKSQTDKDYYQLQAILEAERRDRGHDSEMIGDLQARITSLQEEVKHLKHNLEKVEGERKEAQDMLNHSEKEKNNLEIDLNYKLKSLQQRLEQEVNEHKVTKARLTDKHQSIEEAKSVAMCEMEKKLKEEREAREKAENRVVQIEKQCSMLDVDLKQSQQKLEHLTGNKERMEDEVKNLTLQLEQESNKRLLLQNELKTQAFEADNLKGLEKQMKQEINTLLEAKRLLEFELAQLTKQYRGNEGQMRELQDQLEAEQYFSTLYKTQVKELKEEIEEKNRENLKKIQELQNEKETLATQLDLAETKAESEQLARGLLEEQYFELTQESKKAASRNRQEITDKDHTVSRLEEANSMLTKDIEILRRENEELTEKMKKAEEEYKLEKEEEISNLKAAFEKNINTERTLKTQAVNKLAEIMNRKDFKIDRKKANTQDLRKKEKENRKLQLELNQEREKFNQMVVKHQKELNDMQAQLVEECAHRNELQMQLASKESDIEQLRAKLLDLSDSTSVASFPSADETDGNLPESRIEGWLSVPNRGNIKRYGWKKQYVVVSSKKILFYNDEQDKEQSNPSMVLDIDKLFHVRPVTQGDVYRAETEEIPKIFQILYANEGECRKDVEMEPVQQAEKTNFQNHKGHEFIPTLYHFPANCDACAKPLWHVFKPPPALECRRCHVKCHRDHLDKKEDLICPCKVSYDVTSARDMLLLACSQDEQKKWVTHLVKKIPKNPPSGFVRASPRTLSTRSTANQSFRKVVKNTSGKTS
Procedure: as §1, §2, §3

Sequence of ROCK2 (O75116 whole entry, looked up): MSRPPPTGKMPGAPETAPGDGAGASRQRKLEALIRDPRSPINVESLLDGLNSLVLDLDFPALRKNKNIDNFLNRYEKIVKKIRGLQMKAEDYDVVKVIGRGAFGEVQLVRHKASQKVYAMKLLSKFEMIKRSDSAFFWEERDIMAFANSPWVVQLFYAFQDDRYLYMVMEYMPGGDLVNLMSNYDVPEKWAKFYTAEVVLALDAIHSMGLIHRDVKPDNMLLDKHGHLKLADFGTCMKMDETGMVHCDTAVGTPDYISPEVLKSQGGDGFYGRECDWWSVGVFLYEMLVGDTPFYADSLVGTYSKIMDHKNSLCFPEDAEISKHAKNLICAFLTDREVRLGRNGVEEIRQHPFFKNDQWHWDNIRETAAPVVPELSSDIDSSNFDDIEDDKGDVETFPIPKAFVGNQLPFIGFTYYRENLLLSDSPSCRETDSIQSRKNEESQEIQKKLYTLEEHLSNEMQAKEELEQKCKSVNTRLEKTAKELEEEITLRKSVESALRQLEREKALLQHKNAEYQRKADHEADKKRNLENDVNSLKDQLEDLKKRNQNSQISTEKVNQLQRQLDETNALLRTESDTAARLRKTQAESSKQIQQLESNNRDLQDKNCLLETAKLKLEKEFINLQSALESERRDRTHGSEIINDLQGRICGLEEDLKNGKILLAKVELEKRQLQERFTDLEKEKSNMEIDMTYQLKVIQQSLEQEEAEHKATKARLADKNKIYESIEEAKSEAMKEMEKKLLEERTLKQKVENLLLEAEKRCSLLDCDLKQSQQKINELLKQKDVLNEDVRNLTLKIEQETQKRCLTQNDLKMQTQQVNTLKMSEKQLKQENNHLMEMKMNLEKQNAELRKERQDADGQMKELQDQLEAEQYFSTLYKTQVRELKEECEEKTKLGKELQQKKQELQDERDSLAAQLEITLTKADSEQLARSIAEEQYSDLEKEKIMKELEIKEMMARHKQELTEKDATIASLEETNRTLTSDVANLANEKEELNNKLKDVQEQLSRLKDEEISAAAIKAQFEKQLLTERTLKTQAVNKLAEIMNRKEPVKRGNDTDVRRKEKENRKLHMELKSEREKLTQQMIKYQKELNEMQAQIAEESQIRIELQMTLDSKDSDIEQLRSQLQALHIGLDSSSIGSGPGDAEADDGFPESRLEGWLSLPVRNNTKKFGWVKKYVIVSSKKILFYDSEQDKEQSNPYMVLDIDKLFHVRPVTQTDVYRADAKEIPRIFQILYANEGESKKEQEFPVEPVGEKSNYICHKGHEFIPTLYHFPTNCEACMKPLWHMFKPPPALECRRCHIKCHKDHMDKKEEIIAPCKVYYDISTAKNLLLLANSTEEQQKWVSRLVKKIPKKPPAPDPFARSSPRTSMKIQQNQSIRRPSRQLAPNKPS

Row | Structure (SMILES) | IC50 (ROCK2) [nM] | IC50 (ROCK1) [nM]
1 | CC(C)(C)CC(=O)N1CCc2sc(-c3nccc(Nc4ccc5c(=O)[nH]ccc5c4)n3)cc2C1 [C57, 6-((2-(5-(3,3-dimethylbutanoyl)-4,5,6,7-tetrahydrothieno[3,2-c]pyridin-2-yl)pyrimidin-4-yl)amino)isoquinolin-1(2H)-one] | 16 | > 10000
2 | CC(OC(=O)N1Cc2ccc(-c3ncc(F)c(Nc4ccc5c(=O)[nH]ccc5c4)n3)cc2C1)C(F)(F)F (stereo not drawn) [C18, 1,1,1-trifluoro-propan-2-yl 5-(5-fluoro-4-((1-oxo-1,2-dihydro-isoquinolin-6-yl)amino)pyrimidin-2-yl) isoindoline-2-carboxylate] | 31 | > 10000
3 | C[C@@H](OC(=O)N1CCc2sc(-c3ncc(F)c(Nc4ccc5c(c4)CCNC5=O)n3)cc2C1)C(F)(F)F [C65, (R)-1,1,1-trifluoropropan-2-yl 2-(5-fluoro-4-((1-oxo-1,2,3,4-tetrahydroisoquinolin-6-yl)amino)pyrimidin-2-yl)-6,7-dihydrothieno[3,2-c]pyridine-5(4H)-carboxylate] | 80 | > 10000
4 | O=C(OC1CCC1)N1CCc2cc(-c3ncc(F)c(Nc4ccc5c(=O)[nH]ccc5c4)n3)ccc2C1 [C26, cyclobutyl 6-(5-fluoro-4-((1-oxo-1,2-dihydro-isoquinolin-6-yl)amino)pyrimidin-2-yl)-3,4-dihydro-isoquinolin-2(1H)-carboxylate] | 356 | > 10000
5 | CC(C)(C)CC(=O)N1CCc2sc(-c3ncc(F)c(Nc4ccc5c(c4)CCNC5=O)n3)cc2C1 [C53, 6-((2-(5-(3,3-dimethylbutanoyl)-4,5,6,7-tetrahydrothieno [3,2-c]pyridin-2-yl)-5-fluoropyrimidin-4-yl)amino)-3,4-dihydroisoquinolin-1(2H)-one] | 135 | > 10000
6 | COCn1c(C(=O)N2CC(F)(F)C2)cc2ccc(-c3nccc(Nc4ccc5c(=O)[nH]ccc5c4)n3)cc21 [C21, 6-((2-(2-(3,3-difluoro-azetidine-1-carbonyl)-1-(methoxy-methyl)-1H-indol-6-yl)pyrimidin-4-yl)amino) isoquinolin-1(2H)-one] | 108 | > 10000
7 | O=C(OC1CC(F)(F)C1)N1CCc2sc(-c3ncc(F)c(Nc4ccc5c(=O)[nH]ccc5c4)n3)cc2C1 [C27, 3,3-difluorocyclobutyl 2-(5-fluoro-4-((1-oxo-1,2-dihydroisoquinolin-6-yl)amino)pyrimidin-2-yl)-6,7-dihydrothieno[3,2-c]pyridine-5(4H)-carboxylate] | 8 | > 10000
8 | O=C(CCC(F)(F)F)N1Cc2ccc(-c3ncc(F)c(Nc4ccc5c(=O)[nH]ccc5c4)n3)cc2C1 [C63, 6-((5-fluoro-2-(2-(4,4,4-trifluoro-butanoyl)isoindolin-5-yl)pyrimidin-4-yl)amino) isoquinolin-1(2H)-one] | 24 | > 10000
9 | CC(OC(=O)N1CCc2sc(-c3ncc(F)c(Nc4ccc5c(=O)[nH]ncc5c4)n3)cc2C1)C(F)(F)F (stereo not drawn) [C60, 1,1,1-trifluoropropan-2-yl 2-(5-fluoro-4-((1-oxo-1,2-dihydrophthalazin-6-yl)amino)pyrimidin-2-yl)-6,7-dihydrothieno[3,2-c]pyridine-5(4H)-carboxylate] | 13 | > 10000
10 | O=C(C1CCC(F)(F)CC1)N1Cc2ccc(-c3ncc(F)c(Nc4ccc5c(=O)[nH]ccc5c4)n3)cc2C1 [C13, 6-((2-(2-(4,4-difluorocyclohexane-1-carbonyl)isoindolin-5-yl)-5-fluoropyrimidin-4-yl)amino)isoquinolin-1(2H)-one] | 38 | > 10000
11 | CC(CC(=O)N1CCc2sc(-c3ncc(F)c(Nc4ccc5c(c4)CCNC5=O)n3)cc2C1)C(F)(F)F (stereo not drawn) [C55, 6-((5-fluoro-2-(5-(4,4,4-trifluoro-3-methylbutanoyl)-4,5,6,7-tetrahydrothieno[3,2-c]pyridin-2-yl)pyrimidin-4-yl)amino)-3,4-dihydroisoquinolin-1(2H)-one] | 51 | > 10000
12 | O=C(OC1CC(F)(F)C1)N1CCc2cc(-c3ncc(F)c(Nc4ccc5c(=O)[nH]ccc5c4)n3)ccc2C1 [C23, 3,3-difluoro-cyclobutyl 6-(5-fluoro-4-((1-oxo-1,2-dihydro-isoquinolin-6-yl)amino)pyrimidin-2-yl)-3,4-dihydro-isoquinolin-2(1H)-carboxylate] | 173 | > 10000
13 | CN(CC(F)(F)F)C(=O)N1Cc2ccc(-c3ncc(F)c(Nc4ccc5c(c4)CCNC5=O)n3)cc2C1 [C78, 5-(5-fluoro-4-((1-oxo-1,2,3,4-tetrahydro-isoquinolin-6-yl)amino)pyrimidin-2-yl)-N-methyl-N-(2,2,2-trifluoro-ethyl) isoindoline-2-carboxylate] | 40 | > 10000
14 | CC(C)(CC(=O)N1Cc2ccc(-c3ncc(F)c(Nc4ccc5c(c4)CCNC5=O)n3)cc2C1)C(F)(F)F [C82, 6-((5-fluoro-2-(2-(4,4,4-trifluoro-3,3-dimethyl-butanoyl)isoindolin-5-yl)pyrimidin-4-yl)amino)-3,4-dihydro-isoquinolin-1(2H)-one] | 129 | > 10000
15 | CC(C)(C)CC(=O)N1Cc2ccc(-c3ncc(F)c(Nc4ccc5c(=O)[nH]ccc5c4)n3)cc2C1 [C51, 6-((2-(2-(3,3-dimethyl-butanoyl)isoindolin-5-yl)-5-fluoro-pyrimidin-4-yl)amino) isoquinolin-1(2H)-one] | 53 | > 10000
16 | CC(C)(C)OC(=O)N1CCc2cc(-c3ncc(F)c(Nc4ccc5c(=O)[nH]ccc5c4)n3)ccc2C1 [C24, tert-butyl 6-(5-fluoro-4-((1-oxo-1,2-dihydro-isoquinolin-6-yl)amino)pyrimidin-2-yl)-3,4-dihydro-isoquinolin-2(1H)-carboxylate] | 222 | > 10000
17 | CC(CC(=O)N1CCc2sc(-c3nccc(Nc4ccc5c(=O)[nH]ccc5c4)n3)cc2C1)C(F)(F)F (stereo not drawn) [C49, 6-((2-(5-(4,4,4-trifluoro-3-methylbutanoyl)-4,5,6,7-tetrahydrothieno[3,2-c]pyridin-2-yl)pyrimidin-4-yl)amino)isoquinolin-1(2H)-one] | 7 | > 10000
18 | COCn1c(C(=O)N2CC(F)(F)C2)cc2ccc(-c3ncc(F)c(Nc4ccc5c(=O)[nH]ccc5c4)n3)cc21 [C20, 6-((2-(2-(3,3-difluoro-azetidine-1-carbonyl)-1-(methoxy-methyl)-1H-indol-6-yl)-5-fluoro-pyrimidin-4-yl)amino) isoquinolin-1(2H)-one] | 238 | > 10000
19 | CC(OC(=O)N1Cc2ccc(-c3ncc(F)c(Nc4ccc5c(c4)CCNC5=O)n3)cc2C1)C(F)(F)F (stereo not drawn) [C66, 1,1,1-trifluoro-propan-2-yl 5-(5-fluoro-4-((1-oxo-1,2,3,4-tetrahydro-isoquinolin-6-yl)amino)pyrimidin-2-yl) isoindolin-2-carboxylate] | 82 | > 10000
20 | O=C1NCc2cc(Nc3nc(-c4ccc5c(c4)CN(C(=O)OC4CC(F)(F)C4)C5)ncc3F)ccc21 [C30, 3,3-difluoro-cyclobutyl 5-(5-fluoro-4-((1-oxo-isoindolin-5-yl)amino)pyrimidin-2-yl) isoindoline-2-carboxylate] | 216 | > 10000
21 | O=C(CCC(F)(F)F)N1CCc2cc(-c3ncc(F)c(Nc4ccc5c(=O)[nH]ccc5c4)n3)ccc21 [C70, 6-((5-fluoro-2-(1-(4,4,4-trifluoro-butanoyl)indolin-5-yl)pyrimidin-4-yl)amino) isoquinolin-1(2H)-one] | 15 | > 10000
22 | O=C(N1CCc2cc(-c3nccc(Nc4ccc5c(=O)[nH]ccc5c4)n3)ccc2C1)N1CC(F)(F)C1 [C44, 6-((2-(2-(3. 3-difluoro-azetidine-1-carbonyl)-1,2,3,4-tetrahydro-isoquinolin-6-yl)pyrimidin-4-yl)amino) isoquinolin-1(2H)-one] | 57 | > 10000
23 | CC(CC(=O)N1Cc2ccc(-c3ncc(F)c(Nc4ccc5c(=O)[nH]ccc5c4)n3)cc2C1)C(F)(F)F (stereo not drawn) [C37, 6-((5-fluoro-2-(2-(4,4,4-trifluoro-3-methylbutanoyl)isoindolin-5-yl)pyrimidin-4-yl)amino)isoquinolin-1(2H)-one] | 117 | > 10000
24 | CC(CC(=O)N1Cc2ccc(-c3nc(Nc4ccc5c(=O)[nH]ccc5c4)c4ccccc4n3)cc2C1)C(F)(F)F (stereo not drawn) [C50] | 280 | > 10000
